Consider 27 molecules from ChEMBL document CHEMBL5661955, “ASAP - In vitro cytotoxicity” (2024).

Data set [1] can be described thus: Functional CPE-based assay to measure dose dependent changes in cell viability from drug treatment in Vero E6 miRFP670 cells (cotreated with P-gp inhibitor, CP100356). Cells are treated with antiviral candidates that have been serially diluted. Cytotoxicity is reported via analysis of MTS assays in uninfected cells. The assay has been performed by KU Leuven. It counts as toxicity, Vero C1008. As to conditions: chlorocebus sabaeus, p-gp concentration 500 nM. (In general: Tetrazolium dyes change colour on reduction, which living cells bring about.)

Data set [2] can be described thus: Functional assay to measure dose dependent changes in cell viability from drug treatment in Vero E6 miRFP670 cells (cotreated with P-gp inhibitor, CP100356) that are infected with Dengue virus type 2 New Guinea C. […] Cytotoxicity is reported via via analysis of DAPI count using high-content imager. The assay has been performed by KU Leuven. The format is toxicity, cell-based, Vero C1008. Particulars: chlorocebus sabaeus, p-gp concentration 500 nM.

Data set [3] can be described thus: Functional metabolic assay to measure dose dependent changes in cell viability from drug treatment in Vero E6/TMPRSS2 cells (cotreated with P-gp inhibitor, Elacridar). […] Cytotoxicity is reported via measuring absorbance and analysis of MTT/MTS assays in uninfected cells. The assay has been performed by Icahn School of Medicine at Mount Sinai. It counts as toxicity, cell-based, VeroE6/TMPRSS2. Particulars: chlorocebus sabaeus, p-gp concentration 2 uM.

The mark [4] stands for this setting: Vero E6 miRFP670 cells, with CP100356 (P-gp inhibitor, concentration not stated).
Where [5] appears, read: with CP100356 (P-gp inhibitor, concentration not stated).

Several values for one entry are separate records, joined by “and”; a condition that tells them apart may be missing. Equal values may be shown once. Some results are limits rather than exact numbers.

Consider `CNC(=O)[C@H](Nc1ccc2c(c1)CNC2)c1cc(Cl)cc2[nH]ncc12`, for which the CC50 in data set [1] (setting [4]) was greater than 50 µM; in data set [2] (setting [5]), 5.53 µM.

In the case of `O=C(Nc1ccc2c(n1)CNC2)c1cc(Cl)cc2[nH]ncc12`, the 50% cytotoxic concentration (CC50) in data set [1] (setting [4]) and in data set [2] (setting [5]) was greater than 50 µM throughout.

As for `CC(=O)Nc1cc(Br)cc(C(=O)Nc2ccc3c(c2)CNC3)c1`, the CC50 in data set [1] (setting [4]) was greater than 50 µM; in data set [2] (setting [5]) it was 0.561 µM.

In the case of `CC(C)NC(=O)[C@H](Nc1ccc2c(c1)CNC2)c1cc(Cl)cc2[nH]c(-c3ccccc3)nc12`, the CC50 is 5.66 µM and 9.23 µM and 13.7 µM in data set [1] (vero c1008); 23.2 µM and 7.47 µM and 13.6 µM in data set [2] (vero c1008).

Turning to `O=C(Nc1ccc2c(c1)CNC2)c1cc(F)cc2[nH]c(-c3cnc(C4CC4)o3)nc12`, the CC50 is 3.86 µM and 1.41 µM in data set [1] (vero c1008); 2.55 µM in data set [2] (vero c1008); 1.86 µM in data set [2] (setting [5]).

Consider `O=C(Nc1ccc2c(c1)CNC2)c1cc(Cl)cc2cn[nH]c12`, for which the CC50 in data set [1] (setting [4]) is greater than 50 µM; in data set [2] (setting [5]), 5 µM.

In the case of `O=C(Nc1ccc2c(c1)CNC2)c1cc(Br)cc2[nH]c(=O)[nH]c12`, the CC50 in data set [1] (setting [4]) is greater than 50 µM; in data set [2] (setting [5]) it was 4.79 µM.

For `C=CC[C@H]1NCc2cc(NC(=O)c3cc(Cl)cc4[nH]ncc34)ccc21`, the CC50 in data set [1] (setting [4]) is 11.8 µM; in data set [2] (setting [5]) it was 3.12 µM.

In the case of `Cc1nc2c(C(=O)Nc3ccc4c(c3)CNC4)cc(Cl)cc2[nH]1`, the CC50 in data set [1] (setting [4]) stood at 4.77 µM; in data set [2] (setting [5]), 6.02 µM.

As to `c1ccc(-c2csc(C3CCN(Cc4c[nH]c5ccccc45)CC3)n2)cc1`, in data set [3] (veroe6/tmprss2), the CC10 was 0.299 µM and 0.162 µM; the CC50 is > 10 µM and 20.1 µM. In addition, the CC50 in data set [2] (setting [5]) was greater than 10 µM.

For `CC1(C)NCc2cc(NC(=O)c3cc(F)cc4[nH]ncc34)ccc21`, the CC50 in data set [1] (setting [4]) was greater than 50 µM.

As to `O=C(Nc1cc(Cl)cc(-c2ccc3[nH]c(C(=O)O)cc3c2)c1)OCc1ccccc1`, the figures for the CC50 in data set [1] (setting [4]), in data set [2] (vero c1008) and in data set [2] (setting [5]) were 25.2 µM, 14.3 µM and 27.1 µM, respectively.

As for `CCOc1cccc(-c2ccc(S(=O)(=O)Nc3ccc(Cl)cc3C(=O)O)cc2)c1`, in data set [3] (veroe6/tmprss2), the CC50 is greater than 50 µM.

Regarding `NCCCCc1ccc(NC(=O)c2cc(Cl)cc(NC(=O)OCc3ccccc3)c2)cc1`, the CC50 in data set [3] (Vero E6/TMPRSS2 cells, with Elacridar (P-gp inhibitor, concentration not stated)) was greater than 50 µM; in data set [2] (setting [5]), 6.49 µM. For the same molecule, the CC10 in data set [3] (veroe6/tmprss2) was greater than 50 µM.

Turning to `O=C(NC1CCOCC1)[C@H](Nc1ccc2c(c1)CNC2)c1cc(Cl)cc2[nH]ncc12`, the CC50 in data set [1] (setting [4]) and in data set [2] (setting [5]) was greater than 50 µM throughout.

As to `O=C(Nc1ccc2c(c1)CNC2)c1cc(Cl)cc2[nH]c(-c3cccc(F)c3)nc12`, in data set [1] (setting [4]), the CC50 was greater than 50 µM.

As to `O=C(Nc1ccc2c(c1)CNC2)c1cc(F)c2[nH]ccc2c1`, the CC50 was 48.1 µM in data set [1] (setting [4]) and greater than 50 µM in data set [2] (setting [5]).

Turning to `Cc1cccc(-c2nc3c(C(=O)Nc4ccc5c(c4)CNC5)cc(Cl)cc3[nH]2)c1O`, the CC50 in data set [1] (setting [4]) turned out to be 3.03 µM; in data set [1] (vero c1008) it was 3.17 µM; in data set [2] (vero c1008) it was 8.94 µM; in data set [2] (setting [5]), 9 µM.

In the case of `O=C(Nc1ccc2c(c1)CN[C@H]2C1CC1)c1cc(F)cc2[nH]ncc12`, the CC50 in data set [1] (setting [4]) is greater than 50 µM.

For `CC(C)CNC(=O)[C@H](Nc1ccc2c(c1)CNC2)c1cc(Cl)cc2[nH]ncc12`, the CC50 in data set [1] (setting [4]) was greater than 50 µM; in data set [2] (setting [5]), 17 µM.

For `CCOCCNC(=O)[C@H](Nc1ccc2c(c1)CNC2)c1cc(Cl)cc2[nH]ncc12`, the CC50 in data set [1] (setting [4]) was greater than 50 µM; in data set [2] (setting [5]) it was 9.94 µM.

`O=C(Nc1ccc2c(c1)CNC2)c1cc(F)cc2nn(-c3ccccn3)nc12`: the CC50 was 7.85 µM and 1.85 µM in data set [1] (vero c1008); 7.3 µM and 1.92 µM in data set [2] (vero c1008).

As for `C[C@H]1NCc2cc(NC(=O)c3cc(F)cc4[nH]ncc34)ccc21`, in data set [1] (setting [4]), the CC50 is greater than 50 µM.

Consider `CCCNC(=O)[C@H](Nc1ccc2c(c1)CNC2)c1cc(Cl)cc2[nH]ncc12`, for which the CC50 was greater than 50 µM in data set [1] (setting [4]) and 12.9 µM in data set [2] (setting [5]).

Take `O=C(Nc1ccc2c(c1)CNC2)c1cc(Cl)cc2[nH]c(-c3ccccc3)nc12`: the CC50 in data set [1] (setting [4]) came to 2.09 µM.

For `O=C(Nc1ccc2c(c1)CNC2)c1cc(F)cc2[nH]c(-c3ccccc3)nc12`, the CC50 in data set [1] (setting [4]) is 5.81 µM; in data set [1] (vero c1008), 4.83 µM; in data set [2] (vero c1008), > 50 µM and 6.86 µM.

For `O=C(O)c1cc(Cl)ccc1S(=O)(=O)NC1CCN(c2nc(C3CC3)cc(C(F)(F)F)n2)CC1`, the CC50 in data set [3] (veroe6/tmprss2) is > 10 µM and 49.7 µM.

As a reminder, the CC50 is the concentration giving 50% cytotoxicity.
